# Reference: BindingDB's records for doi:10.1016/s0960-894x(01)00003-8 (Shionogi, 2001)
# Experiment: Concentration required to inhibit human Cytosolic phospholipase A2
row,IC50,SMILES
1,4.2 nM,"O=C1N=C(O)SC1=Cc1ccc(C(=O)NC[C@@H]2C[C@@H](S(c3ccccc3)(c3ccccc3)c3ccccc3)CN2C(=O)c2ccccc2C(=O)c2ccc(F)cc2F)cc1 [N-[(2S,4R)-1-[2-(2,4-Difluoro-benzoyl)-benzoyl]-4-(triphenyl-lambda*4*-sulfanyl)-pyrrolidin-2-ylmethyl]-4-[2,4-dioxo-thiazolidin-(5Z)-ylidenemethyl]-benzamide]"
2,165 nM,"O=C1N=C(O)SC1=Cc1ccc(C(=O)NC[C@@H]2C[C@@H](OCc3ccccc3-c3ccccc3)CN2C(=O)c2ccccc2C(=O)c2ccccc2)cc1 [N-[(2S,4R)-1-(2-Benzoyl-benzoyl)-4-(biphenyl-2-ylmethoxy)-pyrrolidin-2-ylmethyl]-4-[2,4-dioxo-thiazolidin-(5Z)-ylidenemethyl]-benzamide]"
3,420 nM,CCCCC/C=C\C/C=C\C/C=C\C/C=C\CCCC(=O)C(F)(F)F [Arachidonyltrifluoromethane]
